Measurements as given in patent US10550125B2, “Prodrugs of imidazotriazine compounds as CK2 inhibitors” (BRISTOL-MYERS SQUIBB COMPANY, priority 2015, dated 2020).
Values after ≈ are worked out from the molar mass of the structure shown. Where two headings read alike, the source gives them in different places.

Key:
pCK2 motif = assay: In vivo pharmacodynamic study, pCK2 motif inhibition in SNU-C1 (colon) xenograft tumor model; set-up: species or system mice; settings: for % inh. of p-CK2 at 24th hour: oral gavage, SNU-C1 (colon) xenograft in mice
Experimental: pCK2 motif is a putative cellular substrate of CK2 with molecular weight of ˜60 kDa.
To determine extent of pCK2 motif inhibition by test compounds in vivo, SNU-C1 colon tumor cells were inoculated into female BALB/c athymic mice and propagated as subcutaneous xenografts. The dosing solutions of the compound or control were administered to mice with tumors reaching ˜500 mm by oral gavage at the indicated dose levels and schedules. Tumors were collected from control and treated mice at the indicated times and immediately frozen in liquid nitrogen. Frozen tumors were thawed on ice in 5 volumes of TTG buffer (Tris-HCl, pH 7.9, 10% glycerol, 0.02% Tween-20). Tumors were homogenized using a Qiagen TissueLyser II (3×1 min (1/30S)) in Qiagen Tissulyser tubes containing steel beads. Tumor homogenates were clarified by microcentrifugation at 13000 rpm for 10 min. Western blot analysis was performed using 60 μg of protein per lane on 4-15% BioRad SDS-PAGE gels. Blots were probed with an anti-pCK2 motif antibody (mAb #8738 Cell Signaling Technology) and anti-Actin antibody. The pCK2 motif antibody is a purified […] antibody developed by immunizing mice with a degenerate mixture of peptides corresponding to the consesnus phorylation site used by CK2. The intensity of the pCK2 motif band was measured on images obtained from the Licor Odyssey instrument. % pCK2 remaining at each dose was calculated relative to the average intensity of bands from untreated, control mouse tumors.

[1] = Single-dose pharmacokinetics in rats (oral bioavailability); assay type: in vivo; settings: for Oral Bioavailability in Rats, % F: male Sprague-Dawley rats, ratio of dose-normalized AUC, oral vs IV; for Prodrug bioavailability in Rats, % F: dose-normalized AUC of parent (Example 1) after oral prodrug vs IV infusion of parent
Experimental: In a study to determine oral bioavailability in male Sprague-Dawley rats, two groups of animals (N=3 per group, 300 to 350 g) are used. One group (non-fasted) receives the compound by IV infusion (over 10 minutes) via a jugular vein and one group (fasted) receives drug by oral gavage. Serial blood samples (˜0.3 mL) are collected from the jugular vein into tri-potassium ethylenediaminetetraacetic acid (K3EDTA)-containing tubes at 0.167 (for IV), 0.25, 0.5, 1, 3, 5, 7, and 24 hours, post dose and then centrifuged at 4° C. (1500 to 2000×g) to obtain plasma, which is stored at −20° C. until analysis by LC-MS/MS.
The pharmacokinetic parameters were obtained by non-compartmental analysis of plasma concentration (determined by LC/MS/MS) vs. time data (ThermoKinetica Software version 4.4.1). The peak concentration (Cmax) and time for Cmax, Tmax, were recorded directly from experimental observations. The area under the curve from time zero to the last sampling time (AUC0-t) was calculated using a combination of linear and log trapezoidal summations. The total plasma clearance (CLTp), steady-state volume of distribution (Vss), apparent elimination half-life (t½) and mean residence time (MRT) were estimated after IV administration. Estimation of T½ was made using a minimum of 3 time points with quantifiable concentrations.
For non-prodrugs, the absolute oral bioavailability F was estimated as the ratio of dose-normalized AUC values following oral and IV doses.
In case of prodrugs (e.g., Examples 2 and 5), absolute bioavailability F was estimated as the ratio of dose-normalized AUC values of parent (Example 1) upon oral administration of prodrugs (Examples 2 and 5) and IV infusion of parent (Example 1).

[2] = Thermodynamic equilibrium aqueous solubility assay; assay type: physicochemical; settings: for solubility at 24 h: aqueous buffer, thermodynamic from solid
Experimental: Standards Preparation: The calibration standard was prepared by accurately weighing 0.5-0.7 mg of sample in 5 ml of methanol. If the material was not fully soluble in methanol, other solvents such as DMSO or mixed solvents were used.
The solution was sonicated and vortexed for ˜30 seconds. The vials were shaken at 300 rpm at room temperature for 24 hrs. The exact incubation time for a specific prodrug was based on the prior aqueous stability data. If the compound was stable in the buffer up to 24 hrs, then the solubility was measured after 24 hrs, otherwise kinetic solubility data was reported. The final saturated solution was then transferred to a 1.5 mL eppendorf tube and centrifuged for ˜2 min. at 10000 rpms. The supernatant from the saturated solution was transferred to a glass HPLC vial and the solubility was analyzed by HPLC using a four point calibration curve.

CK2A2 = CK2A2 (Homo sapiens (Human), UniProt P19784); assay: CK2 kinase assay (CK2A2); assay type: biochemical; settings: recombinant CK2A2
CK2A2, sequence (P19784 whole entry): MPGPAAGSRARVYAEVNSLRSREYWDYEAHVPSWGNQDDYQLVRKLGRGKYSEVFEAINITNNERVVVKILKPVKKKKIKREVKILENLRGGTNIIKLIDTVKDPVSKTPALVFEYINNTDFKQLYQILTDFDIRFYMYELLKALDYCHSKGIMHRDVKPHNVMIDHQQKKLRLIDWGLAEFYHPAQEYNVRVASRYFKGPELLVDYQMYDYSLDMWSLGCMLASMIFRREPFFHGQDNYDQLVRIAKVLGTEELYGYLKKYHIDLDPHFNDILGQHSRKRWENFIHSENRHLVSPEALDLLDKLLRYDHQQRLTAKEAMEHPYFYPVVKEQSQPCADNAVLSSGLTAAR
Experimental: (§1) The effectiveness of compounds of the present invention as inhibitors of protein kinases can be readily tested by assays known to those skilled in the art. For example, in vitro protein kinase assays may be conducted with a relevant purified protein kinase and an appropriate synthetic substrate to determine the inhibitory activity of the compounds. […] Reaction mixtures were incubated at 30° C. for 1 hour, and reaction products were captured by binding to phosphocellulose (P81) filter plates. Incorporation of radioactive phosphate into the peptide substrate was determined by liquid scintillation counting. The potency of compounds in inhibiting CK2 is expressed as IC50, defined as the concentrations of compounds required to inhibit the enzymatic activity by 50%.
(§2) The inhibitory activity of the instant compounds may also be measured by recombinant CK2 holoenzyme kinase assays. The assays were performed in U-bottom 384-well plates. The final assay volume was 30 μl prepared from 15 μl additions of enzyme and substrates (fluoresceinated peptide FL-RRRADDSDDDDD-NH2 and ATP) and test compounds in assay buffer (20 mM HEPES pH 7.4, 10 mM MgCl2, 100 mM NaCl, 0.015% Brij35 and 0.25 mM DTT). The reaction was initiated by the combination of bacterially expressed, CK2 α/β or CK2 α′/β holoenzyme with substrates and test compounds. The reaction was incubated at room temperature for 60 minutes and terminated by adding 30 μl of 35 mM EDTA to each sample. The reaction mixture was analyzed on the Caliper LABCHIP® 3000 (Caliper, Hopkinton, Mass.) by electrophoretic separation of the fluorescent substrate and phosphorylated product. Inhibition data were calculated by comparison to no enzyme control reactions for 100% inhibition and vehicle-only reactions for 0% inhibition. The final concentration of reagents in the CK2 α/β assay was 25 μM ATP, 1.5 μM FL-RRRADDSDDDDD-NH2, 50 pM CK2 α/β holoenzyme, and 1.6% DMSO. The final concentration of reagents in the CK2 α′/β assay was 10 μM ATP, 1.5 μM FL-RRRADDSDDDDD-NH2, 100 pM CK2 α′/β holoenzyme, and 1.6% DMSO. Dose response curves were generated to determine the concentration required inhibiting 50% of kinase activity (IC50). Compounds were dissolved at 10 mM in dimethylsulfoxide (DMSO) and evaluated at eleven concentrations. IC50 values were derived by non-linear regression analysis.

CK2A1 = CK2A1 (Homo sapiens (Human), UniProt P68400); assay: CK2 kinase assay (CK2A1); assay type: biochemical; settings: recombinant CK2A1
CK2A1, sequence (P68400 whole entry): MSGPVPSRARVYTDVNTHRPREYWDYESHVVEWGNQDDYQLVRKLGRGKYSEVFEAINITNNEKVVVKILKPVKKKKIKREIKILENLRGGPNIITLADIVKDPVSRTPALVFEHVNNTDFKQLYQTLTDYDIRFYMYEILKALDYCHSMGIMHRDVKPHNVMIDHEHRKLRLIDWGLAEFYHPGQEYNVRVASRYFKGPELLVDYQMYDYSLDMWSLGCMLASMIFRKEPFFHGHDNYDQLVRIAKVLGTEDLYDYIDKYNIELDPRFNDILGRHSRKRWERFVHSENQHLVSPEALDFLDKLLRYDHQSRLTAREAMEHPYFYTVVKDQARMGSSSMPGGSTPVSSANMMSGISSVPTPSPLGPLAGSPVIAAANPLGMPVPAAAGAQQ
Experimental: as §1, §2

[3] = 50 mM potassium phosphate buffer, pH 6.5, 50 mM potassium phosphate, read-out: Solubility pH 6.5
[4] = simulated gastric fluid, pH 1.0, read-out: Solubility pH 1.0
[5] = 50 mM sodium acetate buffer, pH 4.0, 50 mM sodium acetate, read-out: Solubility pH 4.0

Oral Bioavailability in Rats, % F [1]	bioavailability in rats compared to Example 174 of WO2014011974 (in words) ([1]; rats, oral)	IC50 (CK2A2)	IC50 (CK2A1)	SMILES	% inh. of p-CK2 at 24th hour (pCK2 motif; 40 mg/kg BID)	solubility at 24 h [2, 3]	solubility at 24 h [2, 4]	% inh. of p-CK2 at 24th hour (pCK2 motif; 15 mg/kg BID)	suppression of pCK2 motif levels relative to vehicle control (in words) (pCK2 motif; SNU-C1 xenograft in mice, up to 24 hours)	solubility compared to the parent compound Example 1 (in words) [2]	solubility at 24 h [2, 5]	Prodrug bioavailability in Rats, % F ([1]; rats)
8 % F	–	–	–	COC(=O)N[C@H]1CCN(c2cc(C#N)cc(Nc3nc(NC4CC4)c4ncc(C#N)n4n3)c2Cl)C[C@@H]1O [174 (WO2014011974), reference compound]	33%/40 mg/kg BID	–	–	–	–	–	–	–
68 % F	marked improvement in bioavailability	< 10 nM	< 10 nM	CCNc1nc(Nc2cc(C#N)cc(N3CCN([C@@H](C)C(N)=O)CC3)c2Cl)nn2c(C#N)cnc12 [Example 1, (S)-2-(4-(2-chloro-5-cyano-3-((7-cyano-4-(ethylamino)imidazo[2,1-f][1,2,4]triazin-2-yl)amino)phenyl)piperazin-1-yl)propanamide]	–	< 1 µg/mL	22 µg/mL (≈ 44.5 µM)	91%/15 mg/kg BID	significantly suppressed	–	–	–
–	–	10 to 100 nM	100 to 1000 nM	CCNc1nc(N(C(=O)OCOC(=O)/C=C/C(=O)O)c2cc(C#N)cc(N3CCN([C@@H](C)C(N)=O)CC3)c2Cl)nn2c(C#N)cnc12 [Example 3, (S,E)-4-((((3-(4-(1-amino-1-oxopropan-2-yl)piperazin-1-yl)-2-chloro-5-cyanophenyl)(7-cyano-4-(ethylamino)imidazo[2,1-f][1,2,4]triazin-2-yl)carbamoyl)oxy)methoxy)-4-oxobut-2-enoic Acid]	–	–	–	–	–	–	–	–
–	–	< 10 nM	10 to 100 nM	CCNc1nc(N(C(=O)OCOC(=O)CC(C)(C)COP(=O)(O)O)c2cc(C#N)cc(N3CCN([C@@H](C)C(N)=O)CC3)c2Cl)nn2c(C#N)cnc12 [Example 4, (S)-(((3-(4-(1-amino-1-oxopropan-2-yl)piperazin-1-yl)-2-chloro-5-cyanophenyl)(7-cyano-4-(ethylamino)imidazo[2,1-f][1,2,4]triazin-2-yl)carbamoyl)oxy)methyl 3,3-dimethyl-4-(phosphonooxy)butanoate]	–	–	–	–	–	–	–	–

SMILES	Oral Bioavailability in Rats, % F [1]	bioavailability in rats compared to Example 174 of WO2014011974 (in words) ([1]; rats, oral)	IC50 (CK2A2)	IC50 (CK2A1)	% inh. of p-CK2 at 24th hour (pCK2 motif; 40 mg/kg BID)	solubility at 24 h [2, 3]	solubility at 24 h [2, 4]	% inh. of p-CK2 at 24th hour (pCK2 motif; 15 mg/kg BID)	suppression of pCK2 motif levels relative to vehicle control (in words) (pCK2 motif; SNU-C1 xenograft in mice, up to 24 hours)	solubility compared to the parent compound Example 1 (in words) [2]	solubility at 24 h [2, 5]	Prodrug bioavailability in Rats, % F ([1]; rats)
CCNc1nc(N(C(=O)OCOC(=O)Cc2ccc(OP(=O)(O)O)cc2)c2cc(C#N)cc(N3CCN([C@@H](C)C(N)=O)CC3)c2Cl)nn2c(C#N)cnc12 [Example 2, (S)-(((3-(4-(1-amino-1-oxopropan-2-yl)piperazin-1-yl)-2-chloro-5-cyanophenyl)(7-cyano-4-(ethylamino)imidazo[2,1-f][1,2,4]triazin-2-yl)carbamoyl)oxy)methyl 2-(4-(phosphonooxy)phenyl)acetate]	–	–	10 to 100 nM	100 to 1000 nM	–	835 µg/mL (≈ 1070 µM)	242 µg/mL (≈ 309 µM)	–	–	superior solubility	124 µg/mL (≈ 159 µM)	40 % F
CCNc1nc(N(C(=O)OCOC(=O)CC(C)(C)c2c(C)cc(C)cc2OP(=O)(O)O)c2cc(C#N)cc(N3CCN([C@@H](C)C(N)=O)CC3)c2Cl)nn2c(C#N)cnc12 [Example 5, (S)-(((3-(4-(1-amino-1-oxopropan-2-yl)piperazin-1-yl)-2-chloro-5-cyanophenyl)(7-cyano-4-(ethylamino)imidazo[2,1-f][1,2,4]triazin-2-yl)carbamoyl)oxy)methyl 3-(2,4-dimethyl-6-(phosphonooxy)phenyl)-3-methylbutanoate]	–	–	10 to 100 nM	100 to 1000 nM	–	1340 µg/mL (≈ 1580 µM)	253 µg/mL (≈ 297 µM)	–	–	superior solubility	160 µg/mL (≈ 188 µM)	88 % F
